Marks after values point to notes of the source that are not given here. Bridge positions count the residues as written; N and C are the ends. Peptide text beside a SMILES is read from it.
Legend:
C. albicans 16820 = assay: Cell-suspension microbicidal assay (MMC); format: cell-based, Candida albicans; conditions: for MMC, C. albicans: lowest concentration that reduced cell viability by 99.9%, 10 mM PIPES, 5 mM glucose, pH 7.4, 2 h 37° C.
Method in brief: (§1)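 Log-phase microbes (2×10^6 CFU/ml) exposed to two-fold peptide dilutions (0.062-8.0 μg/ml) in 10 mM PIPES, 5 mM glucose, pH 7.4, 2 h at 37 °C, then diluted 1:10 to 1:10^6 in broth and grown 24-48 h. MMC is the lowest concentration giving ≥99.9% killing (no pellet at 1:10^3).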

[1] = system: S. aureus 502a, E. coli ML35, and C. albicans 16820; assay: Cell-suspension microbicidal assay, statements across the test organisms (lowest MMC, overall ranges); format: cell-based; conditions: for fold higher MMC than the native cyclic peptide: de-cyclized analog versus native θ-defensin, three test organisms; for M: peptide concentration that kill 99.9% of either S. aureus, E. coli, or C. albicans, lowest MMC value; for 99.9% kill against one of the bacterial organisms: at 8 μg/ml, the highest concentration tested
Method in brief: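 Log-phase organisms (2×10^6 CFU/ml) were exposed for 2 h at 37° C. to peptide (0.062–8.0 μg/ml final) in 10 mM PIPES/5 mM glucose, pH 7.4, then serially diluted in broth and grown 24–48 h. MMC was defined as ≥99.9% killing (no pellet at 1:10^3). SI was calculated as concentration giving 3% hemolysis in PBS divided by lowest MMC.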

S. aureus 502a [2] = assay: Cell-suspension microbicidal assay (MMC); format: cell-based, Staphylococcus aureus; conditions: for MMC, S. aureus: lowest concentration that reduced cell viability by 99.9%, 10 mM PIPES, 5 mM glucose, pH 7.4, 2 h 37° C.
Method in brief: as §1

S. aureus 502a [3] = format: cell-based, Staphylococcus aureus; conditions: physiologic salt / various concentrations of salt; FIG. 6
Protocol: The activity of each peptide (5 μg/ml) was determined in assays containing increasing concentrations of sodium chloride. Staphylocidal activities were expressed as percentages of killing obtained in the absence of additional NaCl.
(§2) To determine the effects of serum, salt, calcium chloride and magnesium chloride on microbicidal activities, peptide activities were determined in assays containing varying ionic strength, divalent cations, and serum. The effect of serum on staphylocidal activity of each peptide was determined by incubating 1×10^6 CFU/ml of S. aureus 502a with increasing peptide concentrations (0.5-4 μg/ml) in 10 mM PIPES, pH 7.4, containing 10% normal human serum for 2 h at 37° C. The effect of sodium chloride on staphylocidal activities was assessed with 5 μg/ml of each peptide in 10 mM PIPES, pH 7.4, containing varying concentrations of sodium chloride (0-160 mM). Effects of divalent cations, CaCl2, or MgCl2 (0-5.6 mM) were assessed in microbicidal assays against E. coli ML35. Bactericidal activities were determined by colony counting (see Example II), and microbicidal potencies were expressed as percent killing as follows:
(§3) [formula] where A=surviving bacteria (CFU/ml) after initial incubation with each peptide in buffer containing serum, salt, or divalent cations and Ao=bacterial CFU/ml in the “no-peptide” controls.

human erythrocytes = assay: Hemolysis assay; format: cell-based
Protocol: For the hemolysis assay, the hemolytic activity of each peptide was determined by the method of Tam et al. (Tam et al., Eur. J. Biochem. 267:3289-3300 (2000)). Blood was obtained from a healthy donor in accordance to a protocol approved by the Institutional Review Board. Normal human serum was prepared from the same individual and stored at −20° C. Red blood cells (RBC) were prepared from blood collected in EDTA. RBC were harvested at 234×g for 10 min, 22° C., washed four times with 10 mM sodium phosphate, 150 mM NaCl, pH 7.4 (PBS), containing 4 mM EDTA and resuspended in PBS without EDTA. Peptides dissolved in 10 μl 0.01% HOAc were diluted with PBS to final concentrations of 0.3-100 μg/ml. RBC were added to a 2% final density in 100 μl. Incubation mixtures were also prepared with 10% serum. After 1 h incubation at 37° C., the cell suspensions were centrifuged at 234×g for 10 min, 22° C. Fifty-μl samples of the supernatants were removed, and the absorbance at 405 nm (A) was measured. Hemolytic activity of each peptide was calculated relative to lysis by 1% NP-40 using the following formula:
A selectivity index (SI=H/M) was calculated as a ratio of a peptide concentration (μg/ml) that causes 3% hemolysis (H) obtained from a dose-dependent hemolysis plot over 0.3 to 3 μg/ml of each peptide in PBS and the lowest MMC value (M) for any of the three test microorganisms (see Example II; Table 2).

E. coli ML35 [4] = assay: Membrane permeabilization assay (ONPG hydrolysis); format: cell-based, Escherichia coli; conditions: for ONPG hydrolysis: rates at 1 μg/ml concentration of each peptide
Method in brief: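 ONPG hydrolysis by log-phase E. coli ML35 (1×10^6 CFU/ml) in 10 mM PIPES pH 7.4 with 3 mM ONPG, peptides at 0-8.0 μg/ml final; A405 followed for 60 min. Control: 0-4 μg/ml peptide incubated with recombinant β-galactosidase and 3 mM ONPG.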

E. coli ML35 [5] = assay: Cell-suspension microbicidal assay (MMC); format: cell-based, Escherichia coli; conditions: for MMC, E. coli: lowest concentration that reduced cell viability by 99.9%, 10 mM PIPES, 5 mM glucose, pH 7.4, 2 h 37° C.
Method in brief: as §1

[6] = biological target: T1, recombinant β-galactosidase (Escherichia coli, UniProt P00722); assay: Inhibition of purified β-galactosidase (ONPG hydrolysis); format: biochemical
T1 construct: gift from Dr. Donald P. Satchell, University of California, Irvine, Department of Pathology
Protocol: Dose-dependent rates of ONPG hydrolysis were determined using 10 nM of purified β-galactosidase.
The effect of each peptide on β-galactosidase-dependent ONPG hydrolysis was determined by incubating 0-4 μg/ml of each peptide with recombinant β-galactosidase (a gift from Dr. Donald P. Satchell, University of California, Irvine, Department of Pathology) and 3 mM ONPG as described above.

S. aureus 502a [7] = format: cell-based, Staphylococcus aureus
Protocol: Dose-dependent staphylocidal activity of each peptide was determined in assays containing 10% normal human serum. Percentages of killing are relative to activities of peptide-containing incubations in which serum was omitted.
as §2, §3

T1 sequence (P00722 2-1024): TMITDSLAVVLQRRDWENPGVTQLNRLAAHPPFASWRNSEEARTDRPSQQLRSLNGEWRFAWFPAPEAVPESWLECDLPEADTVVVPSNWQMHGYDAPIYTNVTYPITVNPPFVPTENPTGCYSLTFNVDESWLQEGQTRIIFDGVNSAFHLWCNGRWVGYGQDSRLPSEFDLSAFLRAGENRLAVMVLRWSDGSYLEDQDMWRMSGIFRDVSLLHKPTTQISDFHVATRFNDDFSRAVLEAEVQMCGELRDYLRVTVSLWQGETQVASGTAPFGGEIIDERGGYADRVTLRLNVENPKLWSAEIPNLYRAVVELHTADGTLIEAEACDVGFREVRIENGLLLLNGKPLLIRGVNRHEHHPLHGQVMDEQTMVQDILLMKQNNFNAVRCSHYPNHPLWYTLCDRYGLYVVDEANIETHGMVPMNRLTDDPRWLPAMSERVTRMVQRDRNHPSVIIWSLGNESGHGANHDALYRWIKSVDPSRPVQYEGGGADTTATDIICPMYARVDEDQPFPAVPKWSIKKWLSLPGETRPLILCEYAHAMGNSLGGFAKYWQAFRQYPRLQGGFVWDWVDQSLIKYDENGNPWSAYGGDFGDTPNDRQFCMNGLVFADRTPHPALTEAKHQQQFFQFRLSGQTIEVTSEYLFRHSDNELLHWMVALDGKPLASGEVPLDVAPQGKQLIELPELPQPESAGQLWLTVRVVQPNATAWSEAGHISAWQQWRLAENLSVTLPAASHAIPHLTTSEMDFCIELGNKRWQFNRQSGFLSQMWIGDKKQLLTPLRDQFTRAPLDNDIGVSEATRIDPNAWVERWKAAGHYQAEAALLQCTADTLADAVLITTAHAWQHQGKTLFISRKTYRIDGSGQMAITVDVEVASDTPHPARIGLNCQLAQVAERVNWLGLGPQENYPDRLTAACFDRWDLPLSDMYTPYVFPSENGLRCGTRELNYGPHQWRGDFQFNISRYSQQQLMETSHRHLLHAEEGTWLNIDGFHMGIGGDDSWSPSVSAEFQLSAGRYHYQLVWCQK

Structure (SMILES)	MMC, C. albicans (C. albicans 16820) [µg/mL]	fold higher MMC than the native cyclic peptide [1]	M [1] [µg/mL]	MMC, S. aureus (S. aureus 502a [2]) [µg/mL]	effect of salt on microbicidal activity (in words) (S. aureus 502a [3])	99.9% kill against one of the bacterial organisms [1]	ONPG hydrolysis (E. coli ML35 [4])	MMC, E. coli (E. coli ML35 [5]) [µg/mL]	further results
CC(C)C[C@@H]1NC(=O)[C@@H]2CSSC[C@H](NC(=O)[C@H](CCCNC(=N)N)NC(=O)[C@@H](NC(=O)[C@@H](NC(=O)CN)C(C)C)CSSC[C@@H](C(=O)N[C@@H](CCCNC(=N)N)C(=O)N[C@@H](CCCNC(=N)N)C(=O)O)NC1=O)C(=O)N[C@@H](CC(C)C)C(=O)N[C@H]1CSSC[C@H](NC(=O)[C@H](C(C)C)NC(=O)CNC(=O)[C@H](CCCNC(=N)N)NC(=O)[C@H](CCCNC(=N)N)NC1=O)C(=O)N[C@@H](CCCNC(=N)N)C(=O)N2 [aRTD-3-OH] (H-GVCRCLCRRGVCRCLCRR-OH; disulfide 3-16, 5-14, 7-12; N-terminus assumed)	1.5	1-2 fold	1.5	1.5	least affected				
CC[C@H](C)[C@@H]1NC(=O)[C@@H]2CSSC[C@H](NC(=O)[C@H](CCCNC(=N)N)NC(=O)[C@@H](NC(=O)[C@H](Cc3ccccc3)NC(=O)CN)CSSC[C@@H](C(=O)N[C@H](C(=O)N[C@@H](CCCNC(=N)N)C(=O)O)[C@@H](C)O)NC1=O)C(=O)N[C@@H](CC(C)C)C(=O)N[C@H]1CSSC[C@H](NC(=O)[C@H](C(C)C)NC(=O)CNC(=O)[C@H](CCCNC(=N)N)NC(=O)[C@H](CCCNC(=N)N)NC1=O)C(=O)N[C@@H](CCCNC(=N)N)C(=O)N2 [aRTD-1-OH] (H-GFCRCLCRRGVCRCICTR-OH; disulfide 3-16, 5-14, 7-12; N-terminus assumed)	4.0	4 fold	4	4.5	intermediate	did not achieve a 99.9% kill	2.4 (A405/sec) · 10^−5		H (human erythrocytes; peptide concentration that causes 3% hemolysis, calculated from dose-dependent hemolysis plot over 0.3-3 μg/ml in PBS): 15.0 µg/mL
CC(C)[C@@H]1NC(=O)[C@@H]2CSSC[C@H](NC(=O)[C@H](CCCNC(=N)N)NC(=O)[C@@H](NC(=O)CNC(=O)CN)CSSC[C@@H](C(=O)N[C@@H](CCCNC(=N)N)C(=O)N[C@@H](CCCNC(=N)N)C(N)=O)NC1=O)C(=O)N[C@@H](Cc1ccc(O)cc1)C(=O)N[C@H]1CSSC[C@H](NC(=O)[C@H](Cc3ccccc3)NC(=O)[C@H](CCCNC(=N)N)NC(=O)[C@H](CCCNC(=N)N)NC(=O)[C@H](CCCNC(=N)N)NC1=O)C(=O)N[C@@H](C(C)C)C(=O)N2 [3cys 2:2 PG-1-NH] (H-GGCRCYCRRRFCVCVCRR-NH2; disulfide 3-16, 5-14, 7-12; N-terminus assumed)	1.5		0.25	0.3			15.3 (A405/sec) · 10^−5	1.0	fold higher activity against C. albicans than 3cys 3:1 PG-1-NH (C. albicans 16820; from MMC, Table 2): 2-3 fold; inhibition of β-galactosidase activity ([6]; peptide 0-4 μg/ml, concentration not given, FIG. 10): potent inhibitor; fold higher activity against S. aureus than 3cys 3:1 PG-1-NH (S. aureus 502a [2]; from MMC, Table 2): 6-7 fold
CC(C)C[C@H](NC(=O)[C@H](CCCNC(=N)N)NC(=O)CNC(=O)CNC(=O)[C@@H](N)CCCNC(=N)N)C(=O)N[C@H]1CSSC[C@@H](C(=O)N[C@H](C(=O)NCC(=O)N[C@@H](CCCNC(=N)N)C(=O)O)C(C)C)NC(=O)[C@H](C(C)C)NC(=O)[C@@H]2CSSC[C@H](NC(=O)[C@H](Cc3ccc(O)cc3)NC1=O)C(=O)N[C@@H](CCCNC(=N)N)C(=O)N[C@@H](CCCNC(=N)N)C(=O)N[C@@H](CCCNC(=N)N)C(=O)N[C@@H](Cc1ccccc1)C(=O)N2 [PG-1-OH] (H-RGGRLCYCRRRFCVCVGR-OH; disulfide 6-15, 8-13; N-terminus assumed)	1.5		1.5	2.0			10.7 (A405/sec) · 10^−5	1.5	enhancement of staphylocidal activity by serum (S. aureus 502a [7]; 10% normal human serum, FIG. 7): 25%; percent less hemolytic than native PG-1 (human erythrocytes): about 50%; fold lower candidacidal potency than native PG-1 (C. albicans 16820; from MMC, Table 2): 1- to 2 fold; fold less microbicidal than PG-1 ([1]; Table 5): 2-3 fold; fold lower potency against E. coli than native PG-1 (E. coli ML35 [5]; from MMC, Table 2): 1- to 2 fold; fold lower staphylocidal potency than native PG-1 (S. aureus 502a [2]; from MMC, Table 2): 5 fold
CC(C)C[C@@H]1NC(=O)[C@@H]2CSSC[C@H](NC(=O)[C@H](CCCNC(=N)N)NC(=O)[C@@H](NC(=O)[C@@H](NC(=O)CNC(=O)[C@@H](N)CCCNC(=N)N)C(C)C)CSSC[C@@H](C(=O)N[C@@H](CCCNC(=N)N)C(N)=O)NC1=O)C(=O)N[C@@H](CC(C)C)C(=O)N[C@H]1CSSC[C@H](NC(=O)[C@H](C(C)C)NC(=O)CNC(=O)[C@H](CCCNC(=N)N)NC(=O)[C@H](CCCNC(=N)N)NC1=O)C(=O)N[C@@H](CCCNC(=N)N)C(=O)N2 [3:1 aRTD-3-NH] (H-RGVCRCLCRRGVCRCLCR-NH2; disulfide 4-17, 6-15, 8-13; N-terminus assumed)	0.8		0.75	> 8		did not achieve a 99.9% kill	9.4 (A405/sec) · 10^−5	1.0	inhibition of bactericidal activity in serum (S. aureus 502a [7]; 502a): 20-50%; Killing percentage, S. aureus (MMC not reached) (S. aureus 502a [2]; at 8 μg/ml, the highest concentration tested): (99%)^b; fold lower staphylocidal activity than RTD-3 and PG-1 (S. aureus 502a [2]; from MMC, Table 2): at least 8 fold
CC[C@H](C)[C@@H]1NC(=O)[C@@H]2CSSC[C@H](NC(=O)[C@H](CCCNC(=N)N)NC(=O)[C@@H]3CSSC[C@H](NC1=O)C(=O)N[C@@H]([C@@H](C)O)C(=O)N[C@@H](CCCNC(=N)N)C(=O)NCC(=O)N[C@@H](Cc1ccccc1)C(=O)N3)C(=O)N[C@@H]([C@@H](C)CC)C(=O)N[C@H]1CSSC[C@H](NC(=O)[C@H](Cc3ccccc3)NC(=O)CNC(=O)[C@H](CCCNC(=N)N)NC(=O)[C@H]([C@@H](C)O)NC1=O)C(=O)N[C@@H](CCCNC(=N)N)C(=O)N2 [RTD-2] (cyclo(CICTRGFCRCICTRGFCR); disulfide 1-10, 3-8, 12-17)	3.0		1.5	1.5			6.3 (A405/sec) · 10^−5	2.3	reduction of the rate of ONPG hydrolysis by purified β-galactosidase ([6]; 2 μg/ml, relative to incubations without peptide): 80%; reduction of the rate of ONPG hydrolysis on addition of RTD-2 (E. coli ML35 [4]; RTD-2 1.0 μg/ml final added after 30 min to E. coli permeabilized with 1 μg/ml RTD-1, FIG. 11B): approximately 30%

From US7462598B2, “Antimicrobial theta defensins, analogs thereof, and methods of use” (priority 2002, dated 2008)
